What was measured:
[1] = system: peach potato aphids (Myzus persicae); conditions: 500 ppm by weight; infested Chinese cabbage leaves sprayed; mortality assessed after three days
Description: This Example illustrates the pesticidal/insecticidal properties of compounds of formula (I). The activities of individual compounds of formula (I) were determined using a variety of pests. The pests were treated with a liquid composition containing 500 parts per million (ppm) by weight of a compound of formula (I). Each composition was made by dissolving the compound in an acetone and ethanol (50:50 by volume) mixture and diluting the solution with water containing 0.05% by volume of a wetting agent, SYNPERONIC NP8, until the liquid composition contained the required concentration of the compound.
(§1) The test procedure adopted with regard to each pest was essentially the same and comprised supporting a number of the pests on a medium, which was usually a substrate, a host plant or a foodstuff on which the pests feed, and treating either or both the medium and the pests with a composition. Pest mortality was assessed usually between two and five days after treatment.
In each test against peach potato aphids (Myzus persicae), Chinese cabbage leaves were infested with aphids, the infested leaves were sprayed with a test composition and pest mortality was assessed after three days.

[2] = system: fruit flies (Drosophila melanogaster); test: pesticidal test against fruit flies; conditions: liquid composition containing 500 ppm by weight of compound
Description: (§2) The activities of individual compounds of formula (I) were determined using a variety of pests. The pests were treated with a liquid composition containing 500 parts per million (ppm) by weight of a compound of formula (I). Each composition was made by dissolving the compound in an acetone and ethanol (50:50 by volume) mixture and diluting the solution with water containing 0.05% by volume of a wetting agent, SYNPERONIC NP8, until the liquid composition contained the required concentration of the compound.
as §1
(§3) Similar tests were conducted against, independently, two-spotted spider mites (Tetranychus urticae), fruit flies (Drosophila melanogaster), tobacco budworms (Heliothis virescens), diamond back moth (Plutella xylostella) and corn root worm (Diabrotica balteata).

[3] = system: corn root worm (Diabrotica balteata); test: pesticidal test against corn root worm; conditions: liquid composition containing 500 ppm by weight of compound
Description: as §2, §1, §3

[4] = system: diamond back moth (Plutella xylostella); test: pesticidal test against diamond back moth; conditions: liquid composition containing 500 ppm by weight of compound
Description: as §2, §1, §3

[5] = system: tobacco budworms (Heliothis virescens); test: pesticidal test against tobacco budworms; conditions: liquid composition containing 500 ppm by weight of compound
Description: as §2, §1, §3

| Structure (SMILES) | mortality (score) Mp [1] | mortality (score) Dm [2] | mortality (score) Db [3] | mortality (score) Px [4] | mortality (score) Hv [5] |
| --- | --- | --- | --- | --- | --- |
| CCc1nsc(NC(=O)C(C)c2ccc3oc(CC(C)(C)C)nc3c2)c1Cl (stereo not drawn) [Table 1 Compound 87] | 9 (9 indicates 80-100% mortality) | 9 (9 indicates 80-100% mortality) | 9 (9 indicates 80-100% mortality) | 9 (9 indicates 80-100% mortality) |  |
| CCOCN(C(=O)C(C)c1ccc2oc(CC(F)(F)F)nc2c1)c1snc(C)c1Cl (stereo not drawn) [Table 1 Compound 78] | 9 (9 indicates 80-100% mortality) | 9 (9 indicates 80-100% mortality) | 9 (9 indicates 80-100% mortality) | 9 (9 indicates 80-100% mortality) | 9 (9 indicates 80-100% mortality) |
| CCc1nsc(NC(=O)C(C)c2ccc3oc(CC(C)C)nc3c2)c1Cl (stereo not drawn) [Table 1 Compound 86] | 9 (9 indicates 80-100% mortality) | 9 (9 indicates 80-100% mortality) | 9 (9 indicates 80-100% mortality) | 9 (9 indicates 80-100% mortality) |  |
| CCOCN(C(=O)C(C)c1ccc2oc(CC(C)(C)C)nc2c1)c1snc(CC)c1Cl (stereo not drawn) [Table 1 Compound 157] | 9 (9 indicates 80-100% mortality) | 0 (represents less than 40% mortality) | 9 (9 indicates 80-100% mortality) | 9 (9 indicates 80-100% mortality) | 9 (9 indicates 80-100% mortality) |
| CCOCN(C(=O)C(C)c1ccc2oc(C(F)(F)C(F)(F)F)nc2c1)c1snc(CC)c1Cl (stereo not drawn) [Table 1 Compound 159] | 9 (9 indicates 80-100% mortality) | 9 (9 indicates 80-100% mortality) | 9 (9 indicates 80-100% mortality) | 9 (9 indicates 80-100% mortality) |  |
| CCc1nsc(NC(=O)C(F)c2ccc3oc(CC(C)(C)C)nc3c2)c1Cl (stereo not drawn) [Table 5 Compound 87] | 9 (9 indicates 80-100% mortality) | 9 (9 indicates 80-100% mortality) |  | 9 (9 indicates 80-100% mortality) | 9 (9 indicates 80-100% mortality) |
| CCC(C(=O)Nc1snc(C)c1Cl)c1ccc2oc(C(F)(F)C(F)(F)C(F)(F)F)nc2c1 (stereo not drawn) [Table 2 Compound 10] | 5 (5 indicates 40-79% mortality) | 0 (represents less than 40% mortality) | 9 (9 indicates 80-100% mortality) |  | 9 (9 indicates 80-100% mortality) |
| CCOCN(C(=O)C(F)c1ccc2oc(CC(C)(C)C)nc2c1)c1snc(CC)c1Cl (stereo not drawn) [Table 5 Compound 157] | 9 (9 indicates 80-100% mortality) | 9 (9 indicates 80-100% mortality) | 9 (9 indicates 80-100% mortality) | 9 (9 indicates 80-100% mortality) | 9 (9 indicates 80-100% mortality) |
| CCc1nsc(NC(=O)C(C)c2ccc3sc(CC(C)(C)C)nc3c2)c1Cl (stereo not drawn) [Table 39 Compound 87] | 0 (represents less than 40% mortality) | 0 (represents less than 40% mortality) | 9 (9 indicates 80-100% mortality) | 9 (9 indicates 80-100% mortality) | 9 (9 indicates 80-100% mortality) |
| CCOCN(C(=O)C(C)c1ccc2oc(C(F)(F)C(F)(F)C(F)(F)F)nc2c1)c1snc(CC)c1Cl (stereo not drawn) [Table 1 Compound 160] | 9 (9 indicates 80-100% mortality) | 9 (9 indicates 80-100% mortality) | 9 (9 indicates 80-100% mortality) | 9 (9 indicates 80-100% mortality) |  |
| Cc1nsc(NC(=O)C(F)c2ccc3sc(CC(C)(C)C)nc3c2)c1Cl (stereo not drawn) [Table 42 Compound 7] | 9 (9 indicates 80-100% mortality) | 9 (9 indicates 80-100% mortality) | 9 (9 indicates 80-100% mortality) | 5 (5 indicates 40-79% mortality) | 9 (9 indicates 80-100% mortality) |
| CCOCN(C(=O)C(F)c1ccc2oc(C(F)(F)C(F)(F)C(F)(F)F)nc2c1)c1snc(CC)c1Cl (stereo not drawn) [Table 5 Compound 160] | 9 (9 indicates 80-100% mortality) | 0 (represents less than 40% mortality) | 9 (9 indicates 80-100% mortality) | 9 (9 indicates 80-100% mortality) |  |
| CCOCN(C(=O)C(C)c1ccc2oc(C(F)(F)C(F)(F)C(F)(F)F)nc2c1)c1snc(C)c1Cl (stereo not drawn) [Table 1 Compound 80] | 5 (5 indicates 40-79% mortality) | 0 (represents less than 40% mortality) | 9 (9 indicates 80-100% mortality) | 9 (9 indicates 80-100% mortality) | 9 (9 indicates 80-100% mortality) |
| Cc1nsc(NC(=O)C(F)c2ccc3oc(C(F)(F)C(F)(F)C(F)(F)F)nc3c2)c1Cl (stereo not drawn) [Table 5 Compound 10] | 9 (9 indicates 80-100% mortality) | 9 (9 indicates 80-100% mortality) | 9 (9 indicates 80-100% mortality) | 9 (9 indicates 80-100% mortality) | 9 (9 indicates 80-100% mortality) |
| CCOCN(C(=O)CCc1ccc2oc(CC(C)(C)C)nc2c1)c1snc(C)c1Cl [Table 82 Compound 77] | 9 (9 indicates 80-100% mortality) | 0 (represents less than 40% mortality) |  | 0 (represents less than 40% mortality) | 0 (represents less than 40% mortality) |
| CCOCN(C(=O)C(C)c1ccc2sc(CC(C)C)nc2c1)c1snc(CC)c1Cl (stereo not drawn) [Table 39 Compound 156] | 9 (9 indicates 80-100% mortality) | 0 (represents less than 40% mortality) |  | 9 (9 indicates 80-100% mortality) | 9 (9 indicates 80-100% mortality) |
| CCc1nsc(NC(=O)C(CC)c2ccc3oc(C(F)(F)C(F)(F)C(F)(F)F)nc3c2)c1Cl (stereo not drawn) [Table 2 Compound 90] | 0 (represents less than 40% mortality) | 0 (represents less than 40% mortality) | 0 (represents less than 40% mortality) |  | 9 (9 indicates 80-100% mortality) |
| CCOCN(C(=O)C(C)c1ccc2oc(CC(C)C)nc2c1)c1snc(C)c1Cl (stereo not drawn) [Table 1 Compound 76] | 9 (9 indicates 80-100% mortality) | 9 (9 indicates 80-100% mortality) | 9 (9 indicates 80-100% mortality) | 9 (9 indicates 80-100% mortality) | 5 (5 indicates 40-79% mortality) |
| CCOCN(C(=O)C(F)c1ccc2oc(CC(C)(C)C)nc2c1)c1snc(C)c1Cl (stereo not drawn) [Table 5 Compound 77] | 9 (9 indicates 80-100% mortality) | 0 (represents less than 40% mortality) | 9 (9 indicates 80-100% mortality) | 9 (9 indicates 80-100% mortality) | 5 (5 indicates 40-79% mortality) |
| CCc1nsc(NC(=O)C(C)c2ccc3oc(C(F)(F)C(F)(F)C(F)(F)F)nc3c2)c1Cl (stereo not drawn) [Table 1 Compound 90] | 0 (represents less than 40% mortality) | 0 (represents less than 40% mortality) | 9 (9 indicates 80-100% mortality) | 9 (9 indicates 80-100% mortality) |  |
| CCc1nsc(NC(=O)C(F)c2ccc3oc(C(F)(F)C(F)(F)C(F)(F)F)nc3c2)c1Cl (stereo not drawn) [Table 5 Compound 90] | 9 (9 indicates 80-100% mortality) | 9 (9 indicates 80-100% mortality) | 9 (9 indicates 80-100% mortality) | 9 (9 indicates 80-100% mortality) |  |
| CCc1nsc(NC(=O)C(C)c2ccc3oc(C)nc3c2)c1Cl (stereo not drawn) [Table 1 Compound 81] | 9 (9 indicates 80-100% mortality) | 9 (9 indicates 80-100% mortality) | 9 (9 indicates 80-100% mortality) | 9 (9 indicates 80-100% mortality) |  |
| CCOCN(C(=O)C(C)c1ccc2oc(CC(C)C)nc2c1)c1snc(CC)c1Cl (stereo not drawn) [Table 1 Compound 156] | 9 (9 indicates 80-100% mortality) |  |  |  |  |
| CCc1nsc(NC(=O)C(C)c2ccc3oc(CC(F)(F)F)nc3c2)c1Cl (stereo not drawn) [Table 1 Compound 88] | 9 (9 indicates 80-100% mortality) | 0 (represents less than 40% mortality) | 9 (9 indicates 80-100% mortality) | 9 (9 indicates 80-100% mortality) |  |
| Cc1nsc(NC(=O)C(C)c2ccc3oc(CC(C)C)nc3c2)c1Cl (stereo not drawn) [Table 1 Compound 6] | 0 (represents less than 40% mortality) | 0 (represents less than 40% mortality) | 9 (9 indicates 80-100% mortality) | 9 (9 indicates 80-100% mortality) |  |
| CCc1nsc(NC(=O)C(F)c2ccc3oc(CC(C)C)nc3c2)c1Cl (stereo not drawn) [Table 5 Compound 86] | 9 (9 indicates 80-100% mortality) | 9 (9 indicates 80-100% mortality) |  | 9 (9 indicates 80-100% mortality) | 9 (9 indicates 80-100% mortality) |
| Cc1nsc(NC(=O)C(F)c2ccc3oc(CC(C)C)nc3c2)c1Cl (stereo not drawn) [Table 5 Compound 6] | 9 (9 indicates 80-100% mortality) | 9 (9 indicates 80-100% mortality) | 9 (9 indicates 80-100% mortality) | 9 (9 indicates 80-100% mortality) |  |

Source: patent US6703347B2, “Isothiazole derivatives and their use as pesticides” (Syngenta Limited, priority 2000, dated 2004)
